Assay results from ChEMBL document CHEMBL1201862, “PubChem BioAssay data set” (2004).
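These data come from cells grown in 96-well plates and exposed to compound for 48 hours at five concentrations. The concentration for 50% growth inhibition is given as GI50.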 The source made the active and inactive calls. Rule as the data show it: active = GI50 up to about 1.1 µM and inactive = higher.

Tests used:
Test in all cases: growth of human tumour cells (NCI), 48 h
786-0 = test system: 786-0
SF-295 = test system: SF-295
OVCAR-3 = test system: OVCAR-3
K562 = test system: K562
COLO 205 = test system: COLO 205
SN12C = test system: SN12C
A498 = test system: A498
OVCAR-5 = test system: OVCAR-5
LOX IMVI = test system: LOX IMVI
UO-31 = test system: UO-31
TK-10 = test system: TK-10
NCI-H23 = test system: NCI-H23
CCRF-CEM = test system: CCRF-CEM
SK-OV-3 = test system: SK-OV-3
RPMI-8226 = test system: RPMI-8226
HCC 2998 = test system: HCC 2998
HOP-92 = test system: HOP-92
A549 = test system: A549
SR = test system: SR

| Compound | GI50 (786-0) | GI50 (SF-295) | GI50 (OVCAR-3) | GI50 (K562) | GI50 (COLO 205) | GI50 (SN12C) | GI50 (A498) | GI50 (OVCAR-5) | GI50 (LOX IMVI) | GI50 (UO-31) | GI50 (TK-10) | GI50 (NCI-H23) | GI50 (CCRF-CEM) | GI50 (SK-OV-3) | GI50 (RPMI-8226) | GI50 (HCC 2998) | GI50 (HOP-92) | GI50 (A549) | GI50 (SR) |
| --- | --- | --- | --- | --- | --- | --- | --- | --- | --- | --- | --- | --- | --- | --- | --- | --- | --- | --- | --- |
| C=C(COC(C)=O)CC(/C=C(\C)CCC=C(C)C)OC(C)=O (stereo not drawn) | > 100 µM (inactive) | > 100 µM (inactive) | > 100 µM (inactive) | > 100 µM (inactive) | > 100 µM (inactive) | > 100 µM (inactive) | > 100 µM (inactive) | > 100 µM (inactive) | 32.2 µM (inactive) | > 100 µM (inactive) | > 100 µM (inactive) | > 100 µM (inactive) | 70.5 µM (inactive) | > 100 µM (inactive) | > 10 µM (inactive) | > 100 µM (inactive) | 46.5 µM (inactive) | > 100 µM (inactive) | – |
| C=C(CS(=O)(=O)c1ccccc1)[P+](c1ccccc1)(c1ccccc1)c1ccccc1 | 19.9 µM (inactive) | 20.2 µM (inactive) | 14.8 µM (inactive) | 4.65 µM (inactive) | – | 12.3 µM (inactive) | 35.7 µM (inactive) | 33.9 µM (inactive) | 13.5 µM (inactive) | 27.5 µM (inactive) | 31.4 µM (inactive) | 20.4 µM (inactive) | 5.22 µM (inactive) | 27.3 µM (inactive) | 3.06 µM (inactive) | 20.8 µM (inactive) | 24.5 µM (inactive) | 34.3 µM (inactive) | – |
| CCCCCCCCCCCCC(Br)C(=O)NCC(N)=O (stereo not drawn) | 6.85 µM (inactive) | 14.3 µM (inactive) | 15 µM (inactive) | – | 21.2 µM (inactive) | 1.73 µM (inactive) | 13.6 µM (inactive) | 29.4 µM (inactive) | 12.4 µM (inactive) | 2.09 µM (inactive) | 18.1 µM (inactive) | 4.51 µM (inactive) | 2.45 µM (inactive) | 41.6 µM (inactive) | – | 16.1 µM (inactive) | 3.7 µM (inactive) | 15.6 µM (inactive) | – |
| COc1cc([C@@H]2c3cc4c(cc3[C@@H](NC(=O)c3ccc(N)cc3)C3COC(=O)[C@@H]32)OCO4)cc(OC)c1O (stereo partly drawn) | 1.36 µM (inactive) | 1.98 µM (inactive) | 7.46 µM (inactive) | 3.52 µM (inactive) | 10.8 µM (inactive) | 0.853 µM (active) | 1.64 µM (inactive) | 4.49 µM (inactive) | 1.45 µM (inactive) | 11.9 µM (inactive) | 9.68 µM (inactive) | 1.3 µM (inactive) | 0.292 µM (active) | 2.14 µM (inactive) | 1.61 µM (inactive) | 3.61 µM (inactive) | 4.85 µM (inactive) | 0.119 µM (active) | – |
| Clc1ccccc1C1SCc2nc3ccccc3n21 (stereo not drawn) | 25.7 µM (inactive) | 28.8 µM (inactive) | 14.1 µM (inactive) | 21.6 µM (inactive) | 49.7 µM (inactive) | 18 µM (inactive) | – | 17.6 µM (inactive) | 26.4 µM (inactive) | – | 23 µM (inactive) | 25.4 µM (inactive) | 30.3 µM (inactive) | 27.6 µM (inactive) | 20 µM (inactive) | – | 8.79 µM (inactive) | 32.6 µM (inactive) | 19.4 µM (inactive) |
| OC/C=C(\I)CCCOCOCc1ccccc1 | 28.8 µM (inactive) | 36.1 µM (inactive) | 30.8 µM (inactive) | 40 µM (inactive) | 67.1 µM (inactive) | 42.9 µM (inactive) | 60.8 µM (inactive) | 45.4 µM (inactive) | 19.2 µM (inactive) | 25.4 µM (inactive) | > 100 µM (inactive) | 26.3 µM (inactive) | 20.7 µM (inactive) | > 100 µM (inactive) | 18.2 µM (inactive) | 34 µM (inactive) | 15.7 µM (inactive) | 32 µM (inactive) | – |
